Test results: patent US20260285850A1, “SUBSTITUTED OXAZOLIDINONES AND IMIDAZOLINONES AS HERBICIDES” (FMC CORPORATION, priority 2023, published 2026)

What was measured:
Assay type in all cases: in vivo
[1] = tested on: barnyardgrass (Echinochloa crus-galli); test: Test A preemergence soil spray, visual injury rating 0-100; conditions: 10 days
Summary of the method: (§1)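 Plants were grown in a loam soil-sand blend and treated with test chemical in a non-phytotoxic solvent mixture containing surfactant, either sprayed on soil preemergence or applied postemergence to 2-10 cm plants. After 10 days in a greenhouse, injury was scored visually against untreated controls, 0 meaning no effect and 100 complete control.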

[2] = tested on: blackgrass (Alopecurus myosuroides); test: as above; conditions: 10 days
Summary of the method: as §1

corn (Zea mays) [3] = test: as above; conditions: 10 days
Summary of the method: as §1

[4] = tested on: green foxtail (Setaria viridis); test: as above; conditions: 10 days
Summary of the method: as §1

kochia (Bassia scoparia) [5] = test: as above; conditions: 10 days
Summary of the method: as §1

[6] = tested on: oat, wild (wild oat, Avena fatua); test: as above; conditions: 10 days
Summary of the method: as §1

[7] = tested on: palmer (palmer amaranth, palmer pigweed, Amaranthus palmeri); test: as above; conditions: 10 days
Summary of the method: as §1

[8] = tested on: ragweed (common ragweed, Ambrosia artemisiifolia); test: as above; conditions: 10 days
Summary of the method: as §1

[9] = tested on: ryegrass, Italian (italian ryegrass, Lolium multiflorum); test: as above; conditions: 10 days
Summary of the method: as §1

soybean (Glycine max) [10] = test: as above; conditions: 10 days
Summary of the method: as §1

[11] = tested on: wheat (Triticum aestivum); test: as above; conditions: 10 days
Summary of the method: as §1

[12] = tested on: barnyardgrass (Echinochloa crus-galli); test: Test A postemergence application, visual injury rating 0-100
Summary of the method: as §1

[13] = tested on: blackgrass (Alopecurus myosuroides); test: as above
Summary of the method: as §1

corn (Zea mays) [14] = test: as above
Summary of the method: as §1

[15] = tested on: green foxtail (Setaria viridis); test: as above
Summary of the method: as §1

[16] = tested on: horseweed (Erigeron canadensis); test: as above
Summary of the method: as §1

kochia (Bassia scoparia) [17] = test: as above
Summary of the method: as §1

[18] = tested on: oat, wild (wild oat, Avena fatua); test: as above
Summary of the method: as §1

[19] = tested on: palmer (palmer amaranth, palmer pigweed, Amaranthus palmeri); test: as above
Summary of the method: as §1

[20] = tested on: ragweed (common ragweed, Ambrosia artemisiifolia); test: as above
Summary of the method: as §1

[21] = tested on: ryegrass, Italian (italian ryegrass, Lolium multiflorum); test: as above
Summary of the method: as §1

soybean (Glycine max) [22] = test: as above
Summary of the method: as §1

[23] = tested on: wheat (Triticum aestivum); test: as above
Summary of the method: as §1

[24] = tested on: barnyardgrass (Echinochloa crusgalli); test: Test B flooded paddy test, visual plant response rating 0-100; conditions: 250 g ai/ha, Flood, applied to paddy water, evaluated after 13 days
Summary of the method: (§2)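 Paddy-water application: test compounds went directly into water flooded 3 cm above the soil surface, with plants at 2 leaves. After a 13-day greenhouse period, responses were judged by eye relative to controls; a dash marks an untested entry.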

[25] = tested on: ducksalad (Heteranthera limosa); test: as above; conditions: 250 g ai/ha, Flood, applied to paddy water, evaluated after 13 days
Summary of the method: as §2

rice (Oryza sativa) = test: as above; conditions: 250 g ai/ha, Flood, applied to paddy water, evaluated after 13 days
Summary of the method: as §2

[26] = tested on: sedge, umbrella (small-flower umbrella sedge, Cyperus difformis); test: as above; conditions: 250 g ai/ha, Flood, applied to paddy water, evaluated after 13 days
Summary of the method: as §2

[27] = 62 g ai/ha, 0 = no effect, 100 = complete control
[28] = 62 g ai/ha, postemergence, 10 days, 0 = no effect, 100 = complete control
[29] = Postemergence, 16 g ai/ha, greenhouse 10 days, 0 no effect, 100 complete control

CCOC(=O)C1=CCC(NC(=O)C2(C)CN(c3cc(Cl)cc(Cl)c3)C(=O)O2)C1 (centres unmarked) [Compound 114]
20: Blackgrass plant response rating (0-100) [2, 27] | Oat, Wild plant response rating (0-100) [6, 27] | Horseweed plant response rating (0 to 100 scale) [16, 29]
40: Pigweed, Palmer plant response rating ([7]; 16 g ai/ha, 0 to 100 scale) | Wheat plant response rating (0-100) [11, 27] | Oat, Wild plant response rating (0-100) [18, 28]
10: Soybean plant response rating (0-100) (soybean (Glycine max) [10]; [27]) | Ragweed plant response rating (0 to 100 scale) [20, 29]
55: Plant response rating, Rice (0 to 100 scale, 0 is no effect and 100 is complete control) (rice (Oryza sativa))
90: Barnyardgrass plant response rating (0-100) [1, 27] | Foxtail, Green plant response rating (0-100) [4, 27] | Pigweed, Palmer plant response rating (0-100) [7, 27] | Foxtail, Green plant response rating (0-100) [15, 28] | Kochia plant response rating (0-100) (kochia (Bassia scoparia) [17]; [28]) | Pigweed, Palmer plant response rating (0-100) [19, 28] | Pigweed, Palmer plant response rating (0 to 100 scale) [19, 29] | Wheat plant response rating (0-100) [23, 28] | Plant response rating, Barnyardgrass (0 to 100 scale, 0 is no effect and 100 is complete control) [24]
30: Corn plant response rating (0-100) (corn (Zea mays) [3]; [27]) | Oat, Wild plant response rating (0 to 100 scale) [18, 29]
70: Horseweed plant response rating (0-100) [16, 28] | Soybean plant response rating (0-100) (soybean (Glycine max) [22]; [28])
0: Barnyardgrass plant response rating ([1]; 16 g ai/ha, 0 to 100 scale) | Blackgrass plant response rating ([2]; 16 g ai/ha, 0 to 100 scale) | Corn plant response rating (corn (Zea mays) [3]; 16 g ai/ha, 0 to 100 scale) | Foxtail, Green plant response rating ([4]; 16 g ai/ha, 0 to 100 scale) | Kochia plant response rating (kochia (Bassia scoparia) [5]; 16 g ai/ha, 0 to 100 scale) | Kochia plant response rating (0-100) (kochia (Bassia scoparia) [5]; [27]) | Oat, Wild plant response rating ([6]; 16 g ai/ha, 0 to 100 scale) | Ragweed plant response rating ([8]; 16 g ai/ha, 0 to 100 scale) | Ragweed plant response rating (0-100) [8, 27] | Ryegrass, Italian plant response rating ([9]; 16 g ai/ha, 0 to 100 scale) | Soybean plant response rating (soybean (Glycine max) [10]; 16 g ai/ha, 0 to 100 scale) | Wheat plant response rating ([11]; 16 g ai/ha, 0 to 100 scale)
98: Plant response rating, Sedge, Umbrella (0 to 100 scale, 0 is no effect and 100 is complete control) [26]
50: Blackgrass plant response rating (0 to 100 scale) [13, 29] | Ragweed plant response rating (0-100) [20, 28] | Ryegrass, Italian plant response rating (0 to 100 scale) [21, 29] | Soybean plant response rating (0 to 100 scale) (soybean (Glycine max) [22]; [29])
80: Ryegrass, Italian plant response rating (0-100) [9, 27] | Blackgrass plant response rating (0-100) [13, 28] | Foxtail, Green plant response rating (0 to 100 scale) [15, 29] | Kochia plant response rating (0 to 100 scale) (kochia (Bassia scoparia) [17]; [29]) | Ryegrass, Italian plant response rating (0-100) [21, 28] | Wheat plant response rating (0 to 100 scale) [23, 29] | Plant response rating, Ducksalad (0 to 100 scale, 0 is no effect and 100 is complete control) [25]
100: Barnyardgrass plant response rating (0-100) [12, 28] | Barnyardgrass plant response rating (0 to 100 scale) [12, 29] | Corn plant response rating (0-100) (corn (Zea mays) [14]; [28]) | Corn plant response rating (0 to 100 scale) (corn (Zea mays) [14]; [29])
